# Assay results taken from ChEMBL document CHEMBL3399996, “Marine natural products as inhibitors of cystathionine beta-synthase activity” (Bioorg Med Chem Lett, 2015).
# Target: T1, Cystathionine beta-synthase (Homo sapiens, UniProt P35520)
# T1 sequence (P35520 whole entry): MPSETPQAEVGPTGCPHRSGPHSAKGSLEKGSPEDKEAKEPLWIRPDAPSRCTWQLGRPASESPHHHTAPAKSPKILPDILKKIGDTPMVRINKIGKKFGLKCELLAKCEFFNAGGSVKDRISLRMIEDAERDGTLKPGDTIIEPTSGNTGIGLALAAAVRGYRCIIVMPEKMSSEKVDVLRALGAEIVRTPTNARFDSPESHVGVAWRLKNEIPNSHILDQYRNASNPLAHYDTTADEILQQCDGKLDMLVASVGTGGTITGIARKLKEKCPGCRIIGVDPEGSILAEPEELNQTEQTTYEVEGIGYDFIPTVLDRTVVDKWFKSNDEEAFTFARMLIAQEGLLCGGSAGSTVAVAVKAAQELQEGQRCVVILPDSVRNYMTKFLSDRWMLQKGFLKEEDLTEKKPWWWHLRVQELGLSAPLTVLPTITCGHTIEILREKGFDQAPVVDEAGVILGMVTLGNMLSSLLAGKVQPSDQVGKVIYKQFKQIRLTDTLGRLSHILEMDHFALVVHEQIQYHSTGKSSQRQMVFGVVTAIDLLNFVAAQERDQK
# Test: Inhibition of full-length wild-type cystathionine beta-synthase (unknown origin) assessed as inhibition of H2S production by fluorescence assay in presence of S-adenosylmethionine
row,Compound,IC50
1,O=C1NC(=S)N/C1=C\c1ccc(O)c(O)c1,125 µM
2,COc1cc(/C=C2\NC(=S)NC2=O)ccc1OC(C)=O,83 µM
3,O=C1NC(=S)N/C1=C\c1ccccc1,170 µM
4,C[C@@]12CCC(=O)c3coc(c31)C(=O)c1cc3cccc(OS(=O)(=O)O)c3cc12,136 µM
5,O=C1C=C(c2cc(Br)c(O)c(Br)c2)/C(=C/c2cc(Br)c(O)c(Br)c2)O1 [RUBROLIDE A],108 µM

# More lines, in order of falling IC50, values ahead:
row,IC50,Compound
1,187 µM,COc1cc(/C=C2\NC(=S)NC2=O)ccc1O
2,156 µM,NC(=O)c1cc(Br)c(Br)[nH]1
3,87 µM,COc1cc(/C=C2\N=C(SC)N(C)C2=O)ccc1O
